Measured values from BigSolDB 2.1.

O=C(O)c1cccc(C(=O)O)c1
Settings	solubility (mole fraction)
in isopropanol, 278.55 K	0.00218
in isopropanol, 279.87 K	0.00226
in isopropanol, 283.25 K	0.00255
in isopropanol, 288.15 K	0.00291
in isopropanol, 293.15 K	0.00325
in isopropanol, 298.15 K	0.00396
in isopropanol, 303.05 K	0.00459
in isopropanol, 308.25 K	0.00535
in isopropanol, 313.15 K	0.00607
in isopropanol, 318.25 K	0.00675
in methanol, 278.15 K	0.00253
in methanol, 283.25 K	0.00276
in methanol, 288.05 K	0.00314
in methanol, 293.25 K	0.00346
in methanol, 298.75 K	0.00379
in methanol, 302.65 K	0.00411
in methanol, 307.95 K	0.00456
in n-butanol, 278.06 K	0.00187
in n-butanol, 283.11 K	0.00216
in n-butanol, 288.27 K	0.00234
in n-butanol, 293.3 K	0.00265
in n-butanol, 298.06 K	0.00315
in n-butanol, 303.66 K	0.00366
in n-butanol, 308.36 K	0.00386
in n-butanol, 312.66 K	0.00474
in n-butanol, 317.94 K	0.0052
in n-hexanol, 298.48 K	0.00244
in n-hexanol, 302.97 K	0.0032
in n-hexanol, 308.15 K	0.00362
in n-hexanol, 312.7 K	0.00424
in n-hexanol, 317.67 K	0.00477
in n-hexanol, 320.84 K	0.00544
in n-pentanol, 303.05 K	0.00408
in n-pentanol, 308.05 K	0.00532
in n-pentanol, 313.15 K	0.00594
in n-pentanol, 318.15 K	0.00651
in n-pentanol, 323.05 K	0.0074
in n-propanol, 278.15 K	0.00169
in n-propanol, 280.84 K	0.0019
in n-propanol, 283.34 K	0.0022
in n-propanol, 288.17 K	0.00249
in n-propanol, 293.15 K	0.00268
in n-propanol, 298.35 K	0.0032
in n-propanol, 304.05 K	0.00377
in n-propanol, 308.25 K	0.00425
in n-propanol, 313.15 K	0.00473
in n-propanol, 317.55 K	0.00528
in sec-butanol, 283.05 K	0.00145
in sec-butanol, 288.05 K	0.00172
in sec-butanol, 293.15 K	0.00209
in sec-butanol, 298.25 K	0.00235
in sec-butanol, 303.45 K	0.00263
in sec-butanol, 308.25 K	0.00311
in sec-butanol, 313.25 K	0.00346
in sec-butanol, 318.15 K	0.00391
